The values below come from patent publication US20100120778A1, “QUINOXALINE-BASED LXR MODULATORS” (Wyeth, priority 2008, published 2010).

Test [1] has as its system ABCA1 gene (regulation by LXR) in THP-1 cells. Put plainly: Quantitative analysis of ABCA1 gene regulation in THP-1 cells (real-time RT-PCR). Conditions: for Agonism ABCA1: LXR agonist reference at 1.0 uM as positive control; for EC50: Homo sapiens, read-out: EC50 ABCA1. The class given is cell-based, human. Here is the method: III. Quantitative Analysis of ABCA1 Gene Regulation In THP-1 Cells. The compounds of formula (I) effect on the regulation of the ABCA1 gene was evaluated using the following procedure. Materials and Methods Cell culture: The THP-1 monocytic cell line (ATCC # TIB-202) was obtained from American Type Culture Collection (Manassas, Va.) and cultured in RPMI 1640 medium (Gibco, Carlsbad, Calif.) containing 10% FBS, 2 mM L-glutamine, and 55 uM beta-Mercaptoethanol (BME). […] Louis, Mo.) for three days to induce differentiation into adherent macrophages. Differentiated THP-1 cells were treated with test compounds or ligands dissolved in DMSO (Sigma, D-8779) in culture medium lacking phorbal ester. […] Dose response effects were measured in duplicate, in the range of 0.001 to 30 micromolar concentrations and treated cells were incubated for an additional 18 hrs prior to RNA isolation. Unstimulated cells treated with vehicle were included as negative controls on each plate. […] L., J. Med. Chem. (2000), 45:1963-1966.). Results of antagonist analysis are expressed as % antagonism and IC50 (in μM). RNA isolation and quantitation: Total cellular RNA was isolated from treated cells cultured in 96-well plates using PrepStation 6100 (Applied Biosystems, Foster City, Calif.), according to the manufacturer's recommendations. RNA was resuspended in ribonuclease-free water and stored at -70° C. prior to analysis. RNA concentrations were quantitated with RiboGreen test procedure, #R-11490 (Molecular Probes, Eugene, Oreg.). Gene expression analysis: Gene-specific mRNA quantitation was performed by real-time PCR with the Perkin Elmer Corp. chemistry on an ABI Prism 7700 Sequence detection system (Applied Biosystems, Foster City, Calif.) according to the manufacturer's instructions. Samples (50-100 ng) of total RNA were assayed in duplicate or triplicate in 50 μl reactions using one-step RT-PCR and the standard curve method to estimate specific mRNA concentrations. Sequences of gene-specific primer and probe sets were designed with Primer Express Software (Applied Biosystems, Foster City, Calif.). The human ABCA1 primer and probe sequences are: forward, [NT], reverse, [NT], and probe, 6[…] and PCR reactions were performed according to PE Applied Biosystem's protocol for Taqman Gold RT-PCR or Qiagen's protocol for Quantitect probe RT-PCR. Relative levels of ABCA1 mRNA are normalized using GAPDH mRNA or 18S rRNA probe/primer sets purchased commercially (Applied Biosystems, Foster City, Calif.). Statistics: Mean, standard deviation and statistical significance of duplicate evaluations of RNA samples were assessed using ANOVA, one-way analysis of variance using SAS analysis.
For orientation: Real-time PCR tracks product formation cycle by cycle.

The target of a further test is T1, human LXRα (Homo sapiens, UniProt Q13133).
T1 construct: biotin (biotinylated); made in house; host or cells: E. coli
T1 sequence (Q13133 1-447): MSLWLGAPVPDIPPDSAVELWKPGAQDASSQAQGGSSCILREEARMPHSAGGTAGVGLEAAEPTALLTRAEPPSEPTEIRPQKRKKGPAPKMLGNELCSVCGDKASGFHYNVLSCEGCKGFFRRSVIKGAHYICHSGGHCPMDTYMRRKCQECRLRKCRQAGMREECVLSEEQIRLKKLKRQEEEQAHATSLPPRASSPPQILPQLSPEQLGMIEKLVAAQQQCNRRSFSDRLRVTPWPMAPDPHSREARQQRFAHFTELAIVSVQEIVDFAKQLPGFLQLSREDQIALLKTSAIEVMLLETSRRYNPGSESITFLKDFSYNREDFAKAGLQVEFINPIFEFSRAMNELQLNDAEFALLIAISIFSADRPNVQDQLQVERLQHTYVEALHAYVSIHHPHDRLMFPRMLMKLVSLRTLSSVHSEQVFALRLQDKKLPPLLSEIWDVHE
The test can be described thus: Ligand-binding test procedure for human LXRα (3H T0901317 tracer, flash plates). The settings on record: biotinylated hLXRα, tracer 3H T0901317, +4° C. over night. Here is the method: II. Ligand-Binding Test Procedure for Human LXRα.
Receptor source: E. coli extract from cells expressing biotinylated hLXRα. Extract was made in a similar buffer as above, but with 50 mM TRIS.
Washed streptavidin and coated flash plates with wash buffer. Diluted receptor extract to give Bmax˜4000 cpm and add to the wells. Wrapped the plates in aluminum foil and stored them at +4° C. over night.
Made a dilution series in DMSO of the test ligands. Made a 5 nM solution of the radioactive tracer in buffer. Mixed 250 μl diluted tracer with 5 μl of the test ligand from each concentration of the dilution series. Washed the receptor-coated flash plates. Added 200 μl per well of the ligand/radiolabel mixture to the receptor-coated flash plates. Wrapped the plates in aluminum foil and incubate at +4° C. over night.
Aspirated wells, and wash the flashed plates. Sealed the plate. Measured the remaining radioactivity in the plate.

The next test concerns the target T2, human LXRβ (Homo sapiens, UniProt P55055).
T2 construct: biotin (biotinylated); made in house; host or cells: E. coli
T2 sequence (P55055 1-460): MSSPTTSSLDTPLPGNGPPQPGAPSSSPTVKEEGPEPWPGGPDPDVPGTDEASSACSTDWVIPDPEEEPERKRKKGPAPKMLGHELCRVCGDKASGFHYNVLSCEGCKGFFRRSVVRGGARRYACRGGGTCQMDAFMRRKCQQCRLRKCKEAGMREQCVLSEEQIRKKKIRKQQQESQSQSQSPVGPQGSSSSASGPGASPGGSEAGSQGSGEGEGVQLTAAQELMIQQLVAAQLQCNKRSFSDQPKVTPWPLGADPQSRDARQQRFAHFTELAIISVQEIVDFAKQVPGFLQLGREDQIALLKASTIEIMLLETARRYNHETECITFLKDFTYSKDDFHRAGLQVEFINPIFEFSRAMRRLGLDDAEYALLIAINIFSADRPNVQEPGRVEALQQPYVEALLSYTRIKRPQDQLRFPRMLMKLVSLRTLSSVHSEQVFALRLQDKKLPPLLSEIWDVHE
The test can be described thus: Ligand-binding test procedure for human LXRβ (3H T0901317 tracer, flash plates). Conditions: biotinylated hLXRβ, tracer 3H T0901317, +4° C. over night.

Setting [2] is: Gene regulation by LXR (THP1), differentiated THP-1 cells, 18 hrs.
The mark [3] stands for this setting: Gene regulation by LXR (THP1), differentiated THP-1 cells, 18 hrs, ABCA1 mRNA.

Where two headings read alike, the source gives them in different places.

Regarding `Cc1nc2c(C(F)(F)F)cccc2nc1-c1cc(Oc2cccc(S(=O)(=O)CCCC#N)c2)ccc1Cl` [Example 77, 4-[(3-{4-chloro-3-[3-methyl-5-(trifluoromethyl)quinoxalin-2-yl]phenoxy}phenyl)sulfonyl]-butanenitrile], in test [1] (setting [2]), the “Agonism ABCA1” value turned out to be 45%. Moreover, in test [1] (setting [3]), the EC50 (as a rule, the concentration giving half of the maximal effect) is 4.42 µM. Besides, the values for the IC50 on human LXRα and on human LXRβ were 0.405 µM and 0.128 µM, respectively.
On the same counts, the results for `Cc1nc2c(C(F)(F)F)cccc2nc1-c1ccc(-c2cccc(S(C)(=O)=O)c2)cc1` [Example 1, 3-methyl-2-[3′-(methylsulfonyl)biphenyl-4-yl]-5-(trifluoromethyl)quinoxaline] are 79%, 1.09 µM, 0.752 µM and 0.049 µM.
As for `CNS(=O)(=O)c1cccc(-c2ccc(-c3nc4cccc(C(F)(F)F)c4nc3C)cc2)c1` [Example 53, N-methyl-4′-[3-methyl-5-(trifluoromethyl)quinoxalin-2-yl]biphenyl-3-sulfonamide], the “Agonism ABCA1” value in test [1] (setting [2]) was 55%. Moreover, in test [1] (THP-1, 18 h), the EC50 was 1.4 µM. For the same compound, at human LXRα, the IC50 (commonly the point on the concentration scale where inhibition reaches its midpoint) is > 1 µM.
On the same counts, the results for `CCS(=O)(=O)c1cccc(-c2ccc(-c3nc4cccc(C(F)(F)F)c4nc3C)cc2)c1` [Example 31, 2-[3′-(ethylsulfonyl)biphenyl-4-yl]-3-methyl-5-(trifluoromethyl)quinoxaline] are 65%, 0.89 µM and 0.265 µM.
Turning to `Cc1nc2cccc(C(F)(F)F)c2nc1-c1cc(Oc2cccc(S(=O)(=O)CCCO)c2)ccc1Cl` [Example 63, 3-[(3-{4-chloro-3-[3-methyl-8-(trifluoromethyl)quinoxalin-2-yl]phenoxy}phenyl)sulfonyl]-propan-1-ol], the IC50 was 0.979 µM at human LXRα and 0.048 µM at human LXRβ.
